Counter-ions that a name gives are not always drawn.
Molecular target: T1, AR protein in VCaP cells (Homo sapiens, UniProt P10275)
T1 construct: endogenous in cells; host or cells: VCaP cells
T1 sequence (P10275 1-920): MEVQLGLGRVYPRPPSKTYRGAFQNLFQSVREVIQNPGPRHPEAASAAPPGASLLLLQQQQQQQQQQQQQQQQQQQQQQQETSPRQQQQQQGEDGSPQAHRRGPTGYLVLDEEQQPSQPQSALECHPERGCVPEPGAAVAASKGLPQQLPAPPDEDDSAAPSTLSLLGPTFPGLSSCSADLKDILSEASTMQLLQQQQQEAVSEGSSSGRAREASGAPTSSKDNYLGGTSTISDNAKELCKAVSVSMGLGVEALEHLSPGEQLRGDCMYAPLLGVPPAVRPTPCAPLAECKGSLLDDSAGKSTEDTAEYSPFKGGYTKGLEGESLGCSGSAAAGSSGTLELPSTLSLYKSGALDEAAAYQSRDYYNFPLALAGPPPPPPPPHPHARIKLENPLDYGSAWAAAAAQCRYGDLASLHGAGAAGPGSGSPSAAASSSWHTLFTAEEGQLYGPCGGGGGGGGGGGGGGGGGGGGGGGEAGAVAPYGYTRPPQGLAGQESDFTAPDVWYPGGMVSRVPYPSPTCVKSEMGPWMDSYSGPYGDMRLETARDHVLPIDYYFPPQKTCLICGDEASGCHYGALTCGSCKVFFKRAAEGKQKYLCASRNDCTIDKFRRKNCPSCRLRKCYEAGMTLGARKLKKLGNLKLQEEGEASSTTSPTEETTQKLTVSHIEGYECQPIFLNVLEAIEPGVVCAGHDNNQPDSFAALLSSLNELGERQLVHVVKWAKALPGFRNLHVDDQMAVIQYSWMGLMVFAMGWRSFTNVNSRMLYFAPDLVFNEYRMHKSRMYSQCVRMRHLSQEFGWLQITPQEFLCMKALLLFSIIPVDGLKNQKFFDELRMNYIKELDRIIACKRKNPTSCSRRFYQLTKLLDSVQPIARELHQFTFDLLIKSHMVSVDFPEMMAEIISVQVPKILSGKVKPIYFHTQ
Assay: VCAP AR Degradation Assay
Type: cell-based
Conditions: 24 h, AR ELISA; for DC50: concentration at 50% of DMSO control (50% AR degradation); for Y: lowest measured AR level normalized to DMSO control
Experimental: VCAP AR Degradation Assay. Test compounds were pre-dispensed into a Corning CellBind 96-well clear bottom plate (Cat #3300) using an acoustic dispenser to make a 10-point concentration series at 1:3 dilution for each compound. The final top concentration of each compound was 5 μM. DMSO at a final concentration of 0.1% was used as a control. VCaP cells cultured in DMEM with 8% fetal bovine serum (FBS) were seeded at 50K cells per well in a 200 μL volume into the compound plate and incubated at 37° C. in a CO2 incubator for 24 h. The medium was carefully removed from the cells and the plate was placed on ice. One hundred μL of ice-cold 1× cell lysis buffer from Cell Signaling Technologies (Cat #9803) was added to each well of the cells and the plate was incubated at 4° C. on a shaker for 1 h. Fifteen μL of cell lysate was used for AR ELISA detection using a PathScan Total Sandwich AR ELISA kit (Cell Signaling Technology, Cat #12580). AR levels in compound-treated wells were normalized to that of DMSO control and expressed as percent of control (PoC) (y). A Four Parameter Logistic Model (Sigmoidal Dose-Response Model) was used to determine the compound's DC50, and EC50, using the following equation: y=(A+((B−A)/(1+((C/x)^D)))) • A=YMin (lowest AR level normalized to DMSO control in response to compound treatment, as determined by curve fit) • B=YMax (maximum AR level as determined by curve fit) • C=EC50 • D=Hill Slope • x=compound concentration • EC50=the concentration of compound when y=(YMax−YMin)/2 • DC50=the concentration of the compound when y=50% of DMSO control (50% AR degradation) • y=AR protein level normalized to DMSO control
The lowest measured AR level normalized to DMSO control in response to compound treatment, termed Y value, was used to characterize the compound-mediated AR degradation efficiency.

Structure (SMILES)	DC50 [nM]	Y
C[C@@H]1CN(CCC[C@H]2CC[C@H](N3C(=S)N(c4ccc(C#N)c(Cl)c4)C(=O)C3(C)C)CC2)C[C@H](C)N1CC(=O)Nc1cccc(NC2CCC(=O)NC2=O)c1 (stereo partly drawn) [Cmpd 14, 2-((2S,6R)-4-(3-(trans-4-(3-(3-Chloro-4-cyanophenyl)-5,5-dimethyl-4-oxo-2-thioxoimidazolidin-1-yl)cyclohexyl)propyl)-2,6-dimethylpiperazin-1-yl)-N-(3-((2,6-dioxopiperidin-3-yl)amino)phenyl)acetamide hydrochloride]	10 to 100	*** (25%<Y<50%)
C[C@@H]1C[C@@H](CCO[C@H]2CC[C@H](N3C(=S)N(c4ccc(C#N)c(C(F)(F)F)c4)C(=O)C3(C)C)CC2)C[C@H](C)N1CC(=O)Nc1cccc(NC2CCC(=O)NC2=O)c1 (stereo partly drawn) [Cmpd 15, 2-((2R,4s,6S)-4-(2-((trans-4-(3-(4-Cyano-3-(trifluoromethyl)phenyl)-5,5-dimethyl-4-oxo-2-thioxoimidazolidin-1-yl)cyclohexyl)oxy)ethyl)-2,6-dimethylpiperidin-1-yl)-N-(3-((2,6-dioxopiperidin-3-yl)amino)phenyl)acetamide hydrochloride]	5 to 10	* (0<Y≤15%)
C[C@@H]1C[C@H](CCO[C@H]2CC[C@H](N3C(=S)N(c4ccc(C#N)c(C(F)(F)F)c4)C(=O)C3(C)C)CC2)C[C@H](C)N1CC(=O)Nc1cccc(NC2CCC(=O)NC2=O)c1 (stereo partly drawn) [Cmpd 16, 2-((2R,4r,6S)-4-(2-((trans-4-(3-(4-Cyano-3-(trifluoromethyl)phenyl)-5,5-dimethyl-4-oxo-2-thioxoimidazolidin-1-yl)cyclohexyl)oxy)ethyl)-2,6-dimethylpiperidin-1-yl)-N-(3-((2,6-dioxopiperidin-3-yl)amino)phenyl)acetamide hydrochloride]	5 to 10	* (0<Y≤15%)
C[C@@H]1CN(CCCC[C@H]2CC[C@H](N3C(=S)N(c4ccc(C#N)c(C(F)(F)F)c4)C(=O)C3(C)C)CC2)C[C@H](C)N1CC(=O)Nc1cccc(NC2CCC(=O)NC2=O)c1 (stereo partly drawn) [Cmpd 17, 2-((2R,6S)-4-(4-(trans-4-(3-(4-Cyano-3-(trifluoromethyl)phenyl)-5,5-dimethyl-4-oxo-2-thioxoimidazolidin-1-yl)cyclohexyl)butyl)-2,6-dimethylpiperazin-1-yl)-N-(3-((2,6-dioxopiperidin-3-yl)amino)phenyl)acetamide hydrochloride]	10 to 100	*** (25%<Y<50%)
C[C@@H]1CN(CCC[C@H]2CC[C@H](N3C(=S)N(c4ccc(C#N)c(C(F)(F)F)c4)C(=O)C3(C)C)CC2)C[C@H](C)N1CC(=O)Nc1cccc(N[C@H]2CCC(=O)NC2=O)c1 [Cmpd 18, 2-((2R,6S)-4-(3-(trans-4-(3-(4-Cyano-3-(trifluoromethyl)phenyl)-5,5-dimethyl-4-oxo-2-thioxoimidazolidin-1-yl)cyclohexyl)propyl)-2,6-dimethylpiperazin-1-yl)-N-(3-(((S)-2,6-dioxopiperidin-3-yl)amino)phenyl)acetamide]	10 to 100	** (15%<Y≤20%)
CC1(C)C(=O)N(c2ccc(C#N)c(C(F)(F)F)c2)C(=S)N1[C@H]1CC[C@H](OCCN2CCN(CC(=O)Nc3cccc(NC4CCC(=O)NC4=O)c3)[C@@H](C(F)(F)F)C2)CC1 (stereo partly drawn) [Cmpd 19, 2-((R)-4-(2-((trans-4-(3-(4-Cyano-3-(trifluoromethyl)phenyl)-5,5-dimethyl-4-oxo-2-thioxoimidazolidin-1-yl)cyclohexyl)oxy)ethyl)-2-(trifluoromethyl)piperazin-1-yl)-N-(3-((2,6-dioxopiperidin-3-yl)amino)phenyl)acetamide hydrochloride]	5 to 10	* (0<Y≤15%)
CC1(C)C(=O)N(c2cnc(C#N)c(C(F)(F)F)c2)C(=S)N1[C@H]1CC[C@H](OCCN2CCN(CC(=O)Nc3cccc(NC4CCC(=O)NC4=O)c3)[C@@H](C(F)(F)F)C2)CC1 (stereo partly drawn) [Cmpd 20, 2-((R)-4-(2-((trans-4-(3-(6-Cyano-5-(trifluoromethyl)pyridin-3-yl)-5,5-dimethyl-4-oxo-2-thioxoimidazolidin-1-yl)cyclohexyl)oxy)ethyl)-2-(trifluoromethyl)piperazin-1-yl)-N-(3-((2,6-dioxopiperidin-3-yl)amino)phenyl)acetamide hydrochloride]	≤ 5	* (0<Y≤15%)
C[C@@H]1C[C@H](CCO[C@H]2CC[C@H](N3C(=S)N(c4cnc(C#N)c(C(F)(F)F)c4)C(=O)C3(C)C)CC2)C[C@H](C)N1CC(=O)Nc1cccc(NC2CCC(=O)NC2=O)c1 (stereo partly drawn) [Cmpd 21, 2-((2S,4r,6R)-4-(2-((trans-4-(3-(6-Cyano-5-(trifluoromethyl)pyridin-3-yl)-5,5-dimethyl-4-oxo-2-thioxoimidazolidin-1-yl)cyclohexyl)oxy)ethyl)-2,6-dimethylpiperidin-1-yl)-N-(3-((2,6-dioxopiperidin-3-yl)amino)phenyl)acetamide]	≤ 5	* (0<Y≤15%)
C[C@@H]1C[C@@H](CCO[C@H]2CC[C@H](N3C(=S)N(c4cnc(C#N)c(C(F)(F)F)c4)C(=O)C3(C)C)CC2)C[C@H](C)N1CC(=O)Nc1cccc(NC2CCC(=O)NC2=O)c1 (stereo partly drawn) [Cmpd 22, 2-((2S,4s,6R)-4-(2-(((trans)-4-(3-(6-Cyano-5-(trifluoromethyl)pyridin-3-yl)-5,5-dimethyl-4-oxo-2-thioxoimidazolidin-1-yl)cyclohexyl)oxy)ethyl)-2,6-dimethylpiperidin-1-yl)-N-(3-((2,6-dioxopiperidin-3-yl)amino)phenyl)acetamide]	≤ 5	* (0<Y≤15%)
CC1(C)C(=O)N(c2ccc(C#N)c(C(F)(F)F)c2)C(=S)N1[C@H]1CC[C@H](OCCN2CCN(CC(=O)Nc3cc(F)cc(NC4CCC(=O)NC4=O)c3)[C@@H](C(F)(F)F)C2)CC1 (stereo partly drawn) [Cmpd 23, 2-((R)-4-(2-(((trans)-4-(3-(4-Cyano-3-(trifluoromethyl)phenyl)-5,5-dimethyl-4-oxo-2-thioxoimidazolidin-1-yl)cyclohexyl)oxy)ethyl)-2-(trifluoromethyl)piperazin-1-yl)-N-(3-((2,6-dioxopiperidin-3-yl)amino)-5-fluorophenyl)acetamide]	5 to 10	* (0<Y≤15%)
CC1(C)C(=O)N(c2cnc(C#N)c(C(F)(F)F)c2)C(=S)N1[C@H]1CC[C@H](OCCN2CCN(CC(=O)Nc3cc(F)cc(NC4CCC(=O)NC4=O)c3)[C@@H](C(F)(F)F)C2)CC1 (stereo partly drawn) [Cmpd 24, 2-((R)-4-(2-(((trans)-4-(3-(6-Cyano-5-(trifluoromethyl)pyridin-3-yl)-5,5-dimethyl-4-oxo-2-thioxoimidazolidin-1-yl)cyclohexyl)oxy)ethyl)-2-(trifluoromethyl)piperazin-1-yl)-N-(3-((2,6-dioxopiperidin-3-yl)amino)-5-fluorophenyl)acetamide]	≤ 5	* (0<Y≤15%)
CC1(C)C(=O)N(c2cnc(C#N)c(C(F)(F)F)c2)C(=S)N1[C@H]1CC[C@H](CCCN2CCN(CC(=O)Nc3cccc(NC4CCC(=O)NC4=O)c3)[C@@H](C(F)(F)F)C2)CC1 (stereo partly drawn) [Cmpd 25, 2-((R)-4-(3-((trans)-4-(3-(6-Cyano-5-(trifluoromethyl)pyridin-3-yl)-5,5-dimethyl-4-oxo-2-thioxoimidazolidin-1-yl)cyclohexyl)propyl)-2-(trifluoromethyl)piperazin-1-yl)-N-(3-((2,6-dioxopiperidin-3-yl)amino)phenyl)acetamide]	5 to 10	* (0<Y≤15%)

— patent US12103920B2, “Cereblon binding compounds, compositions thereof, and methods of treatment therewith” (Celgene Corporation, priority 2020, dated 2024)
